Values of other authors, collected in patent US10736322B2, “Aqueous concentrated herbicidal compositions containing glyphosate salts and dicamba salts” (priority 2012, dated 2020).

Details: 25° C.

## O=C(O)CNCP(=O)(O)O [Glyphosate acid, N-(phosphonomethyl)glycine]
  solubility in water: 1.16 wt. %
